Source: the NIST ThermoML archive (doi:10.1021/je049582g)

Assay: cn = amount concentration of the nth substance listed, in mol/dm3
Conditions: 298 K, 101 kPa, Liquid, holographic interferometric technique

C[C@@H](O)[C@H](N)C(=O)O [L-threonine] + O
Conditions | binary diffusion coefficient [m2/s]
c1 = 0.1006 | 7.86e-10
c1 = 0.2002 | 7.58e-10
c1 = 0.2994 | 7.42e-10
c1 = 0.4002 | 7.25e-10
c1 = 0.5003 | 7.15e-10

N[C@@H](CO)C(=O)O [L-serine] + O
Conditions | binary diffusion coefficient [m2/s]
c1 = 0.01 | 9.16e-10
c1 = 0.0301 | 8.91e-10
c1 = 0.05 | 8.79e-10
c1 = 0.07 | 8.71e-10
c1 = 0.0902 | 8.65e-10

N=C(N)NCCC[C@H](N)C(=O)O [L-arginine] + O
Conditions | binary diffusion coefficient [m2/s]
c1 = 0.1002 | 7.01e-10
c1 = 0.2 | 6.61e-10
c1 = 0.2949 | 6.36e-10
c1 = 0.4001 | 6.21e-10
c1 = 0.5 | 6.04e-10

[Cl-].[K+] [potassium chloride] + O
Conditions | binary diffusion coefficient [m2/s]
c1 = 0.33 | 1.83e-10

NCC(=O)O [2-aminoacetic acid] + O
Conditions | binary diffusion coefficient [m2/s]
c1 = 0.1057 | 1.04e-09
c1 = 0.3056 | 1e-09
c1 = 0.5045 | 9.73e-10
c1 = 0.7064 | 9.57e-10
c1 = 0.9045 | 9.43e-10

CC(N)C(=O)O (stereo not drawn) [DL-2-aminopropanoic acid] + O
Conditions | binary diffusion coefficient [m2/s]
c1 = 0.0271 | 9.11e-10
c1 = 0.0281 | 9.11e-10
c1 = 0.2233 | 8.84e-10
c1 = 0.4374 | 8.56e-10
c1 = 0.6786 | 8.27e-10
c1 = 0.9025 | 8.02e-10
c1 = 1.195 | 7.72e-10
c1 = 1.541 | 7.41e-10

NC(N)=O [urea] + O
Conditions | binary diffusion coefficient [m2/s]
c1 = 0.125 | 1.37e-09
c1 = 0.2475 | 1.36e-09
c1 = 0.5 | 1.34e-09
c1 = 0.75 | 1.33e-09
c1 = 0.9782 | 1.31e-09
c1 = 1 | 1.31e-09
c1 = 1.5 | 1.27e-09
c1 = 2 | 1.24e-09
c1 = 3 | 1.19e-09
c1 = 4 | 1.14e-09

OC[C@H]1O[C@@](CO)(O[C@H]2O[C@H](CO)[C@@H](O)[C@H](O)[C@H]2O)[C@@H](O)[C@@H]1O [D-sucrose] + O
Conditions | binary diffusion coefficient [m2/s]
c1 = 0.1 | 4.89e-10
c1 = 0.3 | 4.27e-10
c1 = 0.5 | 3.67e-10
c1 = 0.7 | 3.06e-10

C[C@H](N)C(=O)O [(S)-2-aminopropanoic acid] + O
Conditions | binary diffusion coefficient [m2/s]
c1 = 0.0997 | 9.04e-10
c1 = 0.2996 | 8.59e-10
c1 = 0.4996 | 8.34e-10
c1 = 0.7002 | 8.12e-10
c1 = 0.9006 | 7.92e-10

CC[C@@H](N)C(=O)O [(R)-(-)-α-aminobutyric acid] + O
Conditions | binary diffusion coefficient [m2/s]
c1 = 0.2 | 8e-10
c1 = 0.4 | 7.72e-10
c1 = 0.6 | 7.45e-10
c1 = 0.8 | 7.2e-10
c1 = 1 | 6.97e-10

NCCC(=O)O [3-aminopropanoic acid] + O
Conditions | binary diffusion coefficient [m2/s]
c1 = 0.0281 | 9.36e-10
c1 = 0.0288 | 9.35e-10
c1 = 0.0299 | 9.34e-10
c1 = 0.0344 | 9.33e-10
c1 = 0.111 | 9.18e-10
c1 = 0.5605 | 8.67e-10
c1 = 0.5886 | 8.68e-10
c1 = 1.123 | 8.18e-10
c1 = 1.766 | 7.79e-10
c1 = 2.34 | 7.52e-10
c1 = 2.665 | 7.4e-10
c1 = 3.008 | 7.2e-10
c1 = 3.931 | 6.63e-10
c1 = 4.543 | 6.25e-10
c1 = 5.419 | 5.6e-10

CC(C)[C@H](N)C(=O)O [L-valine] + O
Conditions | binary diffusion coefficient [m2/s]
c1 = 0.1 | 7.12e-10
c1 = 0.2 | 6.79e-10
c1 = 0.2999 | 6.55e-10
c1 = 0.4 | 6.45e-10
c1 = 0.5001 | 6.33e-10

CC[C@H](C)[C@H](N)C(=O)O [2-amino-3-methylpentanoic acid] + O
Conditions | binary diffusion coefficient [m2/s]
c1 = 0.0101 | 7.61e-10
c1 = 0.0203 | 7.5e-10
c1 = 0.0301 | 7.39e-10
c1 = 0.0399 | 7.32e-10
c1 = 0.05 | 7.25e-10
